Patent US10973784B2, “Compositions and methods for treating Alzheimer's disease and Parkinson's disease” (Biotie Therapies, Inc., priority 2016, dated 2021)
Where two headings read alike, the source gives them in different places.

Test: Pharmacokinetic analysis of SYN120 tablets, multiple dose once daily (Example 9)
Assay type: in vivo, human
Details: for Ae % / % Fluctuation / CL renal / half-life: arithmetic mean; for Ae %: urine; for CL renal / Cmax / AUC(0-t) / Tmax / concentration at 14 day / half-life: both sexes, human, oral; for CL renal: plasma and urine, read-out: 0-24 Clr; for Cmax / AUC(0-t) / Tmax / concentration at 14 day / half-life: plasma; for Cmax / AUC(0-t) / concentration at 14 day: geometric mean
Experimental: PK analysis in a multiple dose study was performed on 28 subjects (10 males and 18 females) on day 1 and on 27 subjects (10 males and 17 females) on day 14 who received SYN120 oral tablets. The dosing interval was once daily, approximately 40 minutes after a standard breakfast, for up to 21 days. The subjects were administered the same dose of SYN120 daily at one of the following doses: 100 mg; 300 mg; and 600 mg. The SYN120 oral tablets used in this study were the 50 mg tablets as described in Example 8.
Plasma samples were prepared from blood samples for PK analysis collected on days 1 and 14 at the following time points: 0, 0.5, 1, 1.5, 2, 3, 4, 6, 8, 12, and 24 hrs postdose. Additional blood samples were taken following administration on Day 14 at 32, 36, 48, 72, and 168 hrs (day 15 through day 21). In addition, on days 4 and 10, predose blood samples were collected, while on day 7, blood samples were collected predose and 4 hrs postdose. […] Mean plasma SYN120 concentrations at Day 1, (FIG. 7A and FIG. 7B), and at Day 14 (FIG. 8A and FIG. 8B) are also provided.

Compound `NC(=O)NC[C@@H]1CCCc2cc(S(=O)(=O)c3cccc(F)c3)ccc21` [SYN120] has an Ae % (Day 1, 100 mg QD) of 0.610%, an Ae % (Day 1, 300 mg QD) of 0.857% and an Ae % (Day 1, 600 mg QD) of 0.997%. The “% Fluctuation” value (Day 14, 100 mg QD) was 177%, the Ae % (Day 14, 100 mg QD) was 1.15% and the Tlast (Day 14, 100 mg QD, median) was 168 h. The “% Fluctuation” value (Day 14, 300 mg QD) was 209%, the Ae % (Day 14, 300 mg QD) was 0.988% and the Tlast (Day 14, 300 mg QD, median) was 168 h. The “% Fluctuation” value (Day 14, 600 mg QD) was 212%, the Ae % (Day 14, 600 mg QD) was 0.756% and the Tlast (Day 14, 600 mg QD, median) was 168 h. The CL renal (100 mg, Day 1, 100 mg QD) was 1.25 mL/min, the CL renal (100 mg, Day 14, 100 mg QD) was 1.33 mL/min and the CL renal (300 mg, Day 1, 300 mg QD) was 1.33 mL/min. For the same compound, the CL renal (300 mg, Day 14, 300 mg QD) was 1.34 mL/min, the CL renal (600 mg, Day 1, 600 mg QD) was 1.45 mL/min and the CL renal (600 mg, Day 14, 600 mg QD) was 1.31 mL/min. For the same compound, the Cmax (100 mg, Day 1, 100 mg QD) was 813 ng/mL, the AUC(0-t) (100 mg, Day 1, 100 mg QD, read-out: AUC0-24) was 7780 ng·h/mL and the AUC(0-t) (100 mg, Day 1, 100 mg QD, read-out: AUC0-last) was 7780 ng·h/mL. It also gave a Tmax (100 mg, Day 1, 100 mg QD, median, read-out: Tmax) of 4 h, a Cmax (100 mg, Day 14, 100 mg QD) of 1240 ng/mL and an AUC(0-t) (100 mg, Day 14, 100 mg QD, read-out: AUC0-24) of 14200 ng·h/mL. The AUC(0-t) (100 mg, Day 14, 100 mg QD, read-out: AUC0-last) was 19200 ng·h/mL, the concentration at 14 day (100 mg, Day 14, 100 mg QD, read-out: Cmin) was 201 ng/mL and the concentration at 14 day (100 mg, Day 14, 100 mg QD, read-out: Css) was 591 ng/mL. It also gave a Tmax (100 mg, Day 14, 100 mg QD, median, read-out: Tmax) of 3 h, a Cmax (300 mg, Day 1, 300 mg QD) of 2750 ng/mL and an AUC(0-t) (300 mg, Day 1, 300 mg QD, read-out: AUC0-24) of 29500 ng·h/mL. The AUC(0-t) (300 mg, Day 1, 300 mg QD, read-out: AUC0-last) was 29500 ng·h/mL, the Tmax (300 mg, Day 1, 300 mg QD, median, read-out: Tmax) was 4 h and the Cmax (300 mg, Day 14, 300 mg QD) was 3470 ng/mL. For the same compound, the AUC(0-t) (300 mg, Day 14, 300 mg QD, read-out: AUC0-24) was 36000 ng·h/mL, the AUC(0-t) (300 mg, Day 14, 300 mg QD, read-out: AUC0-last) was 45700 ng·h/mL and the concentration at 14 day (300 mg, Day 14, 300 mg QD, read-out: Cmin) was 357 ng/mL. For the same compound, the concentration at 14 day (300 mg, Day 14, 300 mg QD, read-out: Css) was 1500 ng/mL, the Tmax (300 mg, Day 14, 300 mg QD, median, read-out: Tmax) was 3 h and the Cmax (600 mg, Day 1, 600 mg QD) was 5180 ng/mL. The AUC(0-t) (600 mg, Day 1, 600 mg QD, read-out: AUC0-24) was 59600 ng·h/mL, the AUC(0-t) (600 mg, Day 1, 600 mg QD, read-out: AUC0-last) was 59600 ng·h/mL and the Tmax (600 mg, Day 1, 600 mg QD, median, read-out: Tmax) was 4 h. It also gave a Cmax (600 mg, Day 14, 600 mg QD) of 5460 ng/mL, an AUC(0-t) (600 mg, Day 14, 600 mg QD, read-out: AUC0-24) of 56100 ng·h/mL and an AUC(0-t) (600 mg, Day 14, 600 mg QD, read-out: AUC0-last) of 74000 ng·h/mL. For the same compound, the concentration at 14 day (600 mg, Day 14, 600 mg QD, read-out: Cmin) was 520 ng/mL, the concentration at 14 day (600 mg, Day 14, 600 mg QD, read-out: Css) was 2340 ng/mL and the Tmax (600 mg, Day 14, 600 mg QD, median, read-out: Tmax) was 3.51 h. The Tmax (Day 14, across dose groups, read-out: median Tmax) was 3 to 3.51 h, the Tmax (Study Day 1, each dose group, read-out: median Tmax) was 4 h and the half-life (Day 14, 100 mg QD) was 15.4 h. The half-life (Day 14, 300 mg QD) was 15.5 h and the half-life (Day 14, 600 mg QD, n = 7) was 15 h.
